Results taken from article PMC11574021, “CEP192 localises mitotic Aurora-A activity by priming its interaction with TPX2” (The EMBO Journal, 2024).

Key:
Type in all cases: cell-based, Homo sapiens
[1] = test system: TACC3 in RPE1 p53-/- cells; assay: Immunofluorescence, TACC3 spindle signal intensity, RPE1 p53-/-; conditions: Aurora-A inhibitor 30 min or siRNA 48 h
Description: (§1) As noted in the figures, the following drugs were incubated with cells for 30 min at 37 °C: Aurora-B-i ZM447439 2 µM [10 mM], PLK1-I BI2536 1 µM [10 mM] and Aurora-A-i MLN8237 [5 mM] was used at 250 and 500 nM in U251 and RPE1 cells, respectively. Drugs were resuspended in DMSO to the stock concentrations indicated in square brackets. BI2536 (HY-50698), MLN8237 (HY-10971) and ZM447439 (HY-10128) were all purchased from MedChemExpress. For western blotting, a 20-min pre-treatment with proteasome inhibitor (20 µM MG-132, MerckMillipore, 47490 [20 mM]) was required prior to the addition of DMSO control or kinase inhibitors. This prevented mitotic exit as a consequence of checkpoint override following Aurora-A and Aurora-B inhibitor addition.
(§2) siRNA depletion was carried out by reverse transfection using oligofectamine (Thermo Scientific, 12252011) and lipofectamine RNAiMax (Thermo Scientific, 13778075), according to the manufacturer’s instructions, for U251 and RPE1 cells, respectively. For immunofluorescence, 1 × 10^5 cells were seeded in six-well plates and simultaneously transfected with 60 pmol siRNA duplex and 3 µl transfection reagent diluted in 200 µl Opti-MEM serum-free medium. Growth medium was added to a final volume of 2 ml. […]

[2] = test system: PPP1CA-pT320, PRC1-pT481 and Histone-H3-pS10 in U251 cells; assay: Western blot, mitotic phosphorylations (PPP1CA-pT320, PRC1-pT481, Histone-H3-pS10), asynchronous U251; conditions: asynchronous U251, siRNA 48 h
Description: Cells were lysed on ice for 30 min in lysis buffer (50 mM tris pH 8.0, 300 mM NaCl, 0.2%(v/v) NP-40, 10%(v/v) glycerol, protease inhibitor cocktail C, phosphatase inhibitor cocktail 3 (Sigma, 1:200 dilution), 100 nM okadaic acid (Enzo, ALX-350-003-C100)). Lysates were then centrifuged at 14,000 × g, 15 min, 4 °C, the supernatants were transferred to a fresh tube, and the pellet was discarded. Protein concentrations were measured by Bradford assay using Protein Assay Dye Reagent Concentrate (Bio-Rad Laboratories, 5000006). NuPage LDS sample buffer, supplemented with NuPAGE sample reducing agent (Invitrogen) were added prior to boiling for 10 min at 90 °C. Equal amounts of protein, between 8–20 µg/lane, were loaded into pre-cast 4–12% Bis-Tris gels (Invitrogen, NP0322BOX) and proteins separated in 1x MOPS buffer (Invitrogen) and transferred to nitrocellulose membrane (0.45 µM). Nitrocellulose was then blocked in 5% milk (wt/v) in TBS, 0.1% Tween (v/v) (TBST) for 1 h. Primary and secondary antibodies were diluted in 5% milk, TBST and incubated overnight at 4 °C or for 1 h at room temperature, respectively. Species-specific secondary antibodies conjugated to horseradish peroxidase (HRP) were used (anti-Mouse, Cytiva NA931V; anti-Rabbit, Cytiva NA934; anti-Sheep, Jackson 713-035-003). Membranes were washed for 1 h in TBST, changing the buffer five times, after each antibody incubation.
as §2, with “ml. For western blotting, 1 × 10^6 cells were seeded in 10 cm dishes and transfected with 300 pmol siRNA duplex and 15 µl transfection reagent diluted in 1000 µl Opti-MEM.” for “ml.”

[3] = test system: Aurora-A-pT288 in U251 cells; assay: Western blot densitometry of Aurora-A-pT288, mitotic U251 cells; conditions: mitotic U251 (and RPE1) lysates, siRNA 48 h, in words
Description: For western blotting analysis of mitotic lysates, cells were synchronised in mitosis with 10 µM S-Trityl-L-cysteine (STLC, Bio-Techne, 2191-50), an Eg5 inhibitor, for 20 h prior to collecting by mitotic shake-off. For measuring monopolar spindle diameter and counting centriolar foci by immunofluorescence, cells were treated with 10 µM STLC for 1 h and 4 h prior to fixation, respectively.
as §1
Cells were lysed on ice for 30 min in lysis buffer (50 mM tris pH 8.0, 300 mM NaCl, 0.2%(v/v) NP-40, 10%(v/v) glycerol, protease inhibitor cocktail C, phosphatase inhibitor cocktail 3 (Sigma, 1:200 dilution), 100 nM okadaic acid (Enzo, ALX-350-003-C100)). Lysates were then centrifuged at 14,000 × g, 15 min, 4 °C, the supernatants were transferred to a fresh tube, and the pellet was discarded. Protein concentrations were measured by Bradford assay using Protein Assay Dye Reagent Concentrate (Bio-Rad Laboratories, 5000006). NuPage LDS sample buffer, supplemented with NuPAGE sample reducing agent (Invitrogen) were added prior to boiling for 10 min at 90 °C. […]
Densitometric quantification of western blots was also performed in ImageJ. Intensity was measured in a rectangular region of interest (ROI) around each band. […] An adjacent region was also measured to account for background intensity.

Row | Molecule | spindle recruitment of TACC3 [1] | mitotic phosphorylations (PPP1CA-pT320, PRC1-pT481, Histone-H3-pS10) [2] | activation loop phosphorylation (pT288) of Aurora-A in mitotic cell lysates [3]
1 | COc1cc(Nc2ncc3c(n2)-c2ccc(Cl)cc2C(c2c(F)cccc2OC)=NC3)ccc1C(=O)O [Alisertib] | abrogated spindle recruitment of TACC3 | – | –
2 | 5′-CAAACAACUUGGAAAUCGAtt-3′ [siCEP192] | – | increased levels of mitotic phosphorylations | comparable reduction in pT288 Aurora-A levels to that of TPX2
3 | 5′-CGGUAGUGAUAAAAGCUCAtt-3′ [siTPX2] | fully prevented both spindle recruitment of TACC3 | increased levels of mitotic phosphorylations | strongly reduced activation loop phosphorylation (pT288) of Aurora-A
